How the values were obtained:
Type in all cases: biochemical
[1] = system: AIDA-lipase (pAIDA-lipase): Bacillus sp. 42 thermostable organic solvent tolerant lipase (encoding nucleic acid SEQ ID NO: 15) fused to AIDA-1 autotransporter …; test: Lipase activity, continuous spectrophotometric rate determination at 400 nm, Michaelis-Menten fit, AIDA-lipase on minicell surface; conditions: 4-nitrophenyl-butyrate 0-5 mM, 37° C., pH 7.2; Cells/Well: 99,946,667; best-fit value
Procedure: (§1) Kinetic analysis of the reaction was analyzed by continuous spectrophotometric rate determination at 400 nm.
This construction was conducted with primarily designed pAIDA-1 plasmid (from Addgene, Cambridge, MA) in which the lipase-encoding gene was ligated into the passenger domain within the AIDA-I autotransporter using KpnI and SacI sites as illustrated in FIG. 4A. The tags existed on the pAIDA-1 plasmid prior were used for further analysis on lipase expression. After the ligation is completed, the 6× His tag and HRV3C site are located at N-terminus of the lipase-encoding gene and the Myc tag and TEV site are placed at C-terminus of the lipase-encoding gene. The 6× His tag, which is the 5′ end of the surface-expressed fusion lipase protein was used for Cobalt immobilized metal affinity chromatography (IMAC) and for immunofluorescent staining with THE His Tag antibody [FITC] from Genscript. […]
In order to further confirm presence of the functional lipase-fusion protein in both the elution fraction from the protein purification and the surface of the cell, a lipase activity assay was designed using the lipase substrate, 4-nitrophenyl-butyrate. […] The pathlength, 0.625 cm, was calculated from the known volume of the well (200 uL) and the well's surface area (0.32 cm^2). […]

[2] = system: Brk-lipase: Bacillus sp. 42 thermostable organic solvent tolerant lipase (encoding nucleic acid SEQ ID NO: 15) fused to BrkA autotransporter, on the surface of …; test: Lipase activity, continuous spectrophotometric rate determination at 400 nm, Michaelis-Menten fit, Brk-lipase on minicell surface; conditions: 4-nitrophenyl-butyrate 0-5 mM, 37° C., pH 7.2; Cells/Well: 17,706,667; best-fit value
Procedure: as §1
For a bacterial surface display system named as BrkAutoDisplay based on the structure of autotransporter BrkA (Bordetella serum-resistance killing protein A) was used to host an exogenous gene encoding lipase. To construct a recombinant Brk-lipase expression vector, Brk autotransporter gene was first cloned into the pGEX-6P-1 plasmid. Using BamHI and EcoRI restriction sites, the lipase-encoding gene was ligated with the Brk autotransporter gene, as illustrated in FIG. 6A. […]
(§2) In order to further confirm presence of the functional lipase-fusion protein in both the elution fraction from the protein purification and the surface of the cell, a lipase activity assay was designed using the lipase substrate, 4-nitrophenyl-butyrate. […] The pathlength, 0.625 cm, was calculated from the known volume of the well (200 uL) and the well's surface area (0.32 cm^2).
(§3) For the enzymatic assay, required are the reaction buffer (100 mM Sodium Phosphate Buffer solution pH 7.2, 0.5% (v/v) Triton-X 100, 150 mM Sodium Chloride), the enzyme/cell solution in 1×PBS, and the substrate solution which is varying concentrations of 4-nitrophenyl-butyrate in acetonitrile. […] Vmax and Km were calculated using GraphPad Prism Michaelis-Menten fitting parameters. […]

[3] = system: InaK-lipase: Bacillus sp. 42 thermostable organic solvent tolerant lipase (encoding nucleic acid SEQ ID NO: 15) fused to Ice Nucleation Protein InaK, on the …; test: Lipase activity, continuous spectrophotometric rate determination at 400 nm, Michaelis-Menten fit, InaK-lipase on minicell surface; conditions: 4-nitrophenyl-butyrate 0-5 mM, 37° C., pH 7.2; Cells/Well: 107,840,000; best-fit value
Procedure: as §1
Another bacterial surface display protein, Ice Nucleation Protein K (InaK) was used for expressing recombinant lipase proteins fused to anchoring linker protein (motif) that direct the incorporated fusion protein on the surface of minicells. Like BrkAutoDisplay, polynucleotide encoding Inak transmembrane protein and the lipase-encoding gene were inserted into the pGEX-6P-1 vector for producing the bacterial surface display lipase protein as illustrated in FIG. 7A. […]
as §2
as §3, with “Activity was determined from a Michaelis-Menten fit of the” for “Vmax and Km were”, “rates resulting from varying the substrate concentration according to the Table 10.” for “using GraphPad Prism Michaelis-Menten fitting parameters.”

Work on `CCCC(=O)Oc1ccc([N+](=O)[O-])cc1` [4-nitrophenyl-butyrate] yielded a Km [1] of 180 µM, a Vmax [1] of 0.08174 µM/s and a Km [2] of 221 µM. For the same compound, the Vmax [2] was 0.04453 µM/s, the Km [3] was 302 µM and the Vmax [3] was 0.06354 µM/s.

— patent publication US12606813B2, “Compositions and methods for enzyme immobilization” (priority 2017, dated 2026)
